# Data as given in US5420335A, “Parenteral nutrients based on watersoluble glycerol bisacetoacetates” (priority 1993, dated 1995).
# “And” between values parts separate entries of the source, which are not always exact repeats. Identical values can stand only once. “Also recorded” adds a separate entry of the source.
# Assays:
# Format in all cases: in vivo, rat (male Sprague-Dawley)
# [1] = Nitrogen balance (difference between intake and urinary output); details: for Nitrogen Balance, Difference Between Intake and Output: Table 3, Example 2
# Description: (§1) Water was available ad libitum at all times.
# (§2) The vein was then ligated dorsally to the catheter. […] Body weights were measured daily.
# (§3) Infusate volume, oral food intake, body weight and urinary volume and total nitrogen were monitored daily for each rat. Infusate volume and food intake were determined by weighing the appropriate container at the start and end of each 24 hr. period. Measurements were recorded between 9 and 10 AM each day. At the end of the 7th day, rats were sacrificed, and blood and liver were harvested. Plasma was separated for measurement of free fatty acids, glucose, and ketone bodies. Liver was weighed and a sample was fixed in buffered formalin for gross histology.
# (§4) The data were analyzed for significance by the one-way analysis of variance with repeated measures and comparing the effect of dietary treatment on each day. […] The null hypothesis was concluded invalid if p≤0.05. The analysis of variance was computed on a SAS statistical package.
# FIG. 3 illustrates the difference between oral intake and urinary nitrogen output which is termed nitrogen balance. It is representative of nitrogen balance because urinary nitrogen is the major route for body loss of nitrogen.
# The experimental compound contains 8% nitrogen. With an infusion of 5.6 grams/day, infused nitrogen would provide approximately 450 mg more than that listed in the data tables. The final balance figures includes this number which is calculated based on the actual daily infusion rate for each rat.
# [2] = Daily body weight of intravenously infused rats; details: for Daily Body Weight: Table 4, Example 2
# Description: as §1, §2, §3, §4
# This compound has an estimated energy density of 4.86 kcal/gram based on thermodynamic data from similar compounds.
# [3] = Daily urinary nitrogen losses of intravenously infused rats; details: Table 2, Example 2
# Description: as §1, §2, §3
# The data were analyzed for significance by the one-way analysis of variance with repeated measures and comparing the effect of dietary treatment on each day. […] The null hypothesis was concluded invalid if p≤0.05. The analysis of variance was computed on a SAS statistical package. […]
# [4] = day 2, individual rat, listed as BISACETOACETYLGLYCEROL
# [5] = day 3, individual rat, listed as BISACETOACETYLGLYCEROL
# [6] = day 4, individual rat, listed as BISACETOACETYLGLYCEROL
# [7] = day 5, individual rat, listed as BISACETOACETYLGLYCEROL
# [8] = day 6, individual rat, listed as BISACETOACETYLGLYCEROL
# [9] = day 7, individual rat, listed as BISACETOACETYLGLYCEROL
# [10] = day 1, individual rat, listed as BISACETOACETYLGLYCEROL
substance,measurement,setting,value
Glycerol bis-acetoacetate [Compound 1],"Nitrogen Balance, Difference Between Intake and Output",[1]; [4],26.38 MG N and 170.06 MG N and 345.48 MG N and 260.22 MG N and 157.23 MG N and 36.89 MG N
same,"Nitrogen Balance, Difference Between Intake and Output","[1]; day 3, average of 7 rats",271 MG N
same,"Nitrogen Balance, Difference Between Intake and Output",[1]; [5],120.74 MG N and 489.26 MG N and 42.31 MG N and 282.92 MG N and 469.39 MG N and 333.63 MG N and 158.48 MG N
same,"Nitrogen Balance, Difference Between Intake and Output","[1]; day 4, average of 7 rats",281 MG N
same,"Nitrogen Balance, Difference Between Intake and Output",[1]; [6],376.48 MG N and 384.64 MG N and 31.9 MG N and 385.32 MG N and 274.87 MG N and 292.37 MG N and 219.89 MG N
same,"Nitrogen Balance, Difference Between Intake and Output","[1]; day 5, average of 7 rats",204 MG N
same,"Nitrogen Balance, Difference Between Intake and Output",[1]; [7],269.49 MG N and 269.3 MG N and -24.36 MG N and 244.06 MG N and 343.8 MG N and 171.97 MG N and 153.78 MG N
same,"Nitrogen Balance, Difference Between Intake and Output","[1]; day 6, average of 7 rats",166 MG N
same,"Nitrogen Balance, Difference Between Intake and Output",[1]; [8],256.54 MG N and 38.47 MG N and 48.05 MG N and 240.21 MG N and 246.31 MG N and 230.17 MG N and 103.93 MG N
same,"Nitrogen Balance, Difference Between Intake and Output","[1]; day 7, average of 7 rats",170 MG N
same,"Nitrogen Balance, Difference Between Intake and Output",[1]; [9],184.74 MG N and 68.22 MG N and -1.58 MG N and 228.45 MG N and 375.2 MG N and 270.39 MG N and 65.18 MG N
same,nitrogen balance,"[1]; in words, 7 days",positive nitrogen balances; also recorded: better growth and nitrogen retention
same,Daily Body Weight,"[2]; day 0, average of 7 rats",262 Grams
same,Daily Body Weight,"[2]; day 0, individual rat, listed as BISACETOACETYLGLYCEROL",282 Grams and 278 Grams and 233 Grams and 283 Grams and 268 Grams and 244 Grams
same,Daily Body Weight,"[2]; day 1, average of 7 rats",268 Grams
same,Daily Body Weight,[2]; [10],311 Grams and 290 Grams and 230 Grams and 284 Grams and 268 Grams and 249 Grams and 241 Grams
same,Daily Body Weight,"[2]; day 2, average of 7 rats",268 Grams
same,Daily Body Weight,[2]; [4],273 Grams and 289 Grams and 232 Grams and 297 Grams and 279 Grams and 249 Grams and 256 Grams
same,Daily Body Weight,"[2]; day 3, average of 7 rats",273 Grams
same,Daily Body Weight,[2]; [5],278 Grams and 286 Grams and 258 Grams and 292 Grams and 256 Grams and 263 Grams
same,Daily Body Weight,"[2]; day 4, average of 7 rats",271 Grams
same,Daily Body Weight,[2]; [6],265 Grams and 284 Grams and 226 Grams and 302 Grams and 280 Grams and 262 Grams and 276 Grams
same,Daily Body Weight,"[2]; day 5, average of 7 rats",276 Grams
same,Daily Body Weight,[2]; [7],261 Grams and 276 Grams and 234 Grams and 306 Grams and 285 Grams and 293 Grams and 277 Grams
same,Daily Body Weight,"[2]; day 6, average of 7 rats",269 Grams
same,Daily Body Weight,[2]; [8],253 Grams and 261 Grams and 252 Grams and 310 Grams and 281 Grams and 269 Grams and 260 Grams
same,Daily Body Weight,"[2]; day 7, average of 7 rats",266 Grams
same,Daily Body Weight,[2]; [9],249 Grams and 261 Grams and 253 Grams and 307 Grams and 276 Grams and 273 Grams and 245 Grams
same,change in body weight,"[2]; in words, 7 days",gained weight; also recorded: body weight changes which were consistent with nitrogen balance data; also recorded: better growth
same,Urinary Nitrogen,"[3]; day 1, average of 7 rats",166 mg
same,Urinary Nitrogen,[3]; [10],116.21 mg and 250.2 mg and 187.3 mg and 123.37 mg and 182.18 mg and 159.89 mg and 145.06 mg
same,Urinary Nitrogen,"[3]; day 2, average of 7 rats",192 mg
same,Urinary Nitrogen,[3]; [4],315.78 mg and 264.22 mg and 139.27 mg and 174.34 mg and 187.22 mg and 165.19 mg and 94.71 mg
same,Urinary Nitrogen,"[3]; day 3, average of 7 rats",137 mg
same,Urinary Nitrogen,[3]; [5],181.94 mg and 142.42 mg and 62.97 mg and 164.52 mg and 162.29 mg and 140.13 mg and 104.72 mg
same,Urinary Nitrogen,"[3]; day 4, average of 7 rats",173 mg
same,Urinary Nitrogen,[3]; [6],294.68 mg and 253.62 mg and 47.06 mg and 193.72 mg and 139.67 mg and 115.59 mg and 168.33 mg
same,Urinary Nitrogen,"[3]; day 5, average of 7 rats",215 mg
same,Urinary Nitrogen,[3]; [7],289.81 mg and 303.16 mg and 254.66 mg and 144.16 mg and 274.72 mg and 97.81 mg and 142.32 mg
same,Urinary Nitrogen,"[3]; day 6, average of 7 rats",195 mg
same,Urinary Nitrogen,[3]; [8],283.02 mg and 191.83 mg and 11.17 mg and 134.85 mg and 378.79 mg and 184.37 mg and 179.01 mg
same,Urinary Nitrogen,"[3]; day 7, average of 7 rats",219 mg
same,Urinary Nitrogen,[3]; [9],381.14 mg and 194.98 mg and 152.92 mg and 192.67 mg and 269.64 mg and 203.37 mg and 138.8 mg
